Measurements: patent publication US20230339851A1, “CXCR6 SULFONAMIDE COMPOUNDS” (CHEMOCENTRYX, INC., priority 2022, published 2023)

biological target: T1, human CXCR6 (Homo sapiens, UniProt O00574); experiment: Radioligand Binding Assay (125I-CXCL16 displacement); settings: L1.2 cells stably transfected with human CXCR6 cDNA, 0.1 nM 125I-CXCL16, 4° C., three-hour incubation; read-out: Potency (IC50)
T1 construct: expressed in transfected cells
Outline: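 L1.2 cells stably expressing human CXCR6 incubated 3 h at 4 °C in HBSS/0.1% BSA with 0.1 nM 125I-CXCL16 and graded compound concentrations. Bound radioactivity collected by filtration and counted; IC50 from 3-parameter nonlinear regression.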

T1 sequence (O00574 whole entry): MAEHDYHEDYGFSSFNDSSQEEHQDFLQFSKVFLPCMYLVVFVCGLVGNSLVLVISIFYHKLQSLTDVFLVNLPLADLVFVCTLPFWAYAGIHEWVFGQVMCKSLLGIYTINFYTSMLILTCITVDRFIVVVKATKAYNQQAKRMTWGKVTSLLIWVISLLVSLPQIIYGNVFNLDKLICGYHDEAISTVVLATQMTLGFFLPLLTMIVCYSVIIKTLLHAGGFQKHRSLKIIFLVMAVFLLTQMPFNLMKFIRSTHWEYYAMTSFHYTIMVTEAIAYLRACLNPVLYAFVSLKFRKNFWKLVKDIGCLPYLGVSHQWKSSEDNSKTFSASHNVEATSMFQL

Row | SMILES | IC50 [nM]
1 | CCOc1cc(NC(=O)C2CCOCC2)ccc1S(=O)(=O)Nc1ccc(C)c(OC(F)(F)F)c1 [Example 1.123] | ≤ 200
2 | CCOc1cc(NC(=O)[C@@H](CO)C(C)C)ccc1S(=O)(=O)Nc1ccc(Cl)c(OC(F)(F)F)c1 [Example 1.004] | ≤ 200
3 | COc1cc(NC(=O)c2ccnn2C)ccc1S(=O)(=O)Nc1cccc(C(C)(C)C)c1 [Example 1.231] | 200 to 750
4 | CCOc1cc(NC(=O)C(CC2CCOCC2)C(=O)O)ccc1S(=O)(=O)Nc1cccc(OC(F)(F)F)c1 (centres unmarked) [Example 1.118] | ≤ 200
5 | CCOc1cc(NC(=O)C(=O)c2ccccc2)ccc1S(=O)(=O)Nc1cccc(OC(F)(F)F)c1 [Example 1.023] | 200 to 750
6 | CCOc1cc(NC(=O)C(O)C2CCC2)ccc1S(=O)(=O)Nc1cccc(OC(F)(F)F)c1 (centres unmarked) [Example 1.222] | ≤ 200
7 | CCOc1cc(NC(=O)C2CC=CC[C@H]2O)ccc1S(=O)(=O)Nc1ccc(C)c(OC(F)(F)F)c1 (some centres unmarked) [Example 1.029] | ≤ 200
8 | CCOc1cc(NC(=O)C(CO)C(C)C)ccc1S(=O)(=O)Nc1ccc(Cl)c(OC)c1 (centres unmarked) [Example 1.018] | ≤ 200
9 | CCOc1cc(NC(=O)[C@H]2CCCC[C@@H]2O)ccc1S(=O)(=O)Nc1cccc(OC(F)(F)F)c1 [Example 1.169] | 750 to 2000
10 | CC(C)[C@H](CO)C(=O)Nc1ccc(S(=O)(=O)Nc2cccc(OC(F)(F)F)c2)c(Cl)c1 [Example 1.085] | ≤ 200
11 | CCn1nccc1C(=O)Nc1ccc(S(=O)(=O)Nc2cccc(C(F)(F)F)c2)c(OC)c1 [Example 1.238] | 200 to 750
12 | CCOc1cc(NC(=O)[C@@H](CO)C(C)C)ccc1S(=O)(=O)Nc1ccc(C)c(F)c1 [Example 1.213] | 200 to 750
13 | CCOc1cc(NC(=O)[C@@H](CO)C(C)C)ccc1S(=O)(=O)Nc1cccc(OC(F)F)c1 [Example 1.066] | ≤ 200
14 | CCOc1cc(NC(=O)CC(O)CC2CCOCC2)ccc1S(=O)(=O)Nc1cccc(OC(F)(F)F)c1 (centres unmarked) [Example 1.131] | 2000 to 20000
15 | COc1cc(NC(=O)c2ccnn2C)ccc1S(=O)(=O)Nc1ccc(OC(F)(F)F)c(C)c1 [Example 1.125] | 750 to 2000
16 | CCOc1cc(NC(=O)[C@@H](CO)C(C)C)ccc1S(=O)(=O)Nc1cccc(C(C)(C)C)c1 [Example 1.017] | ≤ 200
17 | CCCCOc1cc(NC(=O)c2ccnn2C)ccc1S(=O)(=O)Nc1cccc(C(F)(F)F)c1 [Example 1.156] | 2000 to 20000

Row | SMILES | IC50 [nM]
18 | CCOc1cc(NC(=O)C(CC)C(O)C2CCOCC2)ccc1S(=O)(=O)Nc1cccc(OC(F)(F)F)c1 (centres unmarked) [Example 1.039] | ≤ 200
19 | COc1cc(NC(=O)[C@@H]2C=CCN2)ccc1S(=O)(=O)Nc1cccc(C(F)(F)F)c1 [Example 1.197] | 750 to 2000
20 | CCOc1cc(NC(=O)[C@@H](N)C(C)CC)ccc1S(=O)(=O)Nc1cccc(OC(F)(F)F)c1 (some centres unmarked) [Example 1.243] | ≤ 200
21 | CCOc1cc(NC(=O)C2CCN(C(C)=O)CC2)ccc1S(=O)(=O)Nc1cccc(OC(F)(F)F)c1 [Example 1.161] | 2000 to 20000
22 | CCOc1cc(NC(=O)c2ccnn2C)ccc1S(=O)(=O)Nc1cccc(C(F)(F)F)c1 [Example 1.068] | ≤ 200
23 | CCOc1cc(NC(=O)[C@@H](O)C(C)C)ccc1S(=O)(=O)Nc1ccc(Cl)c(C)c1 [Example 1.223] | ≤ 200
24 | COc1cc(NC(=O)c2ccnn2C)ccc1S(=O)(=O)Nc1cccc(Cl)c1 [Example 1.202] | 2000 to 20000
25 | CCOc1cc(NC(=O)[C@@H](CO)c2ccccc2)ccc1S(=O)(=O)Nc1cccc(OC(C)C)c1 [Example 1.119] | 200 to 750
26 | CCOc1cc(NC(=O)[C@@H](O)C(C)C)ccc1S(=O)(=O)Nc1cccc(OC(F)(F)F)c1C [Example 1.267] | 2000 to 20000
27 | COc1cc(NC(=O)[C@@H](O)c2ccccc2)ccc1S(=O)(=O)Nc1cccc(OC(F)(F)F)c1 [Example 1.129] | ≤ 200
28 | CCOc1cc(NC(=O)[C@H]2CCOC[C@@H]2CC)ccc1S(=O)(=O)Nc1cccc(OC(F)(F)F)c1 (racemic) [Example 1.065] | ≤ 200
29 | CCOc1cc(NC(=O)C2CCC(O)CC2)ccc1S(=O)(=O)Nc1cccc(OC(F)(F)F)c1 (centres unmarked) [Example 1.183] | 200 to 750
30 | CC(C)[C@H](O)C(=O)Nc1ccc(S(=O)(=O)Nc2cccc(OC(F)(F)F)c2)c(OC(F)(F)F)c1 [Example 1.134] | 200 to 750
31 | CCOc1cc(NC(=O)C(C(=O)O)C2CCC2)ccc1S(=O)(=O)Nc1cccc(OC(F)(F)F)c1 (centres unmarked) [Example 1.218] | ≤ 200
32 | CCc1cc(NC(=O)c2ccccc2)ccc1S(=O)(=O)Nc1cccc(C(F)(F)F)c1 [Example 1.193] | 200 to 750
33 | CCOc1cc(NC(=O)C2CCC(=O)N2C)ccc1S(=O)(=O)Nc1cccc(OC(F)(F)F)c1 (centres unmarked) [Example 1.081] | 750 to 2000
34 | COc1cc(NC(=O)c2ccnn2C)ccc1S(=O)(=O)Nc1ccc(C(F)(F)F)cc1 [Example 1.224] | 200 to 750

Continued, values first:

Row | IC50 [nM] | SMILES
35 | ≤ 200 | CCCc1cc(NC(=O)[C@@H](CO)C(C)C)ccc1S(=O)(=O)Nc1cccc(OC(F)(F)F)c1 [Example 1.311]
36 | 200 to 750 | Cc1cc(NC(=O)C(CO)c2ccccc2)ccc1S(=O)(=O)Nc1cccc(OC(F)(F)F)c1 (centres unmarked) [Example 1.569]
37 | ≤ 200 | CCOc1cc(NC(=O)[C@@H](NC(C)=O)C(C)C)ccc1S(=O)(=O)Nc1ccc(C)c(OC(F)(F)F)c1 [Example 1.275]
38 | 750 to 2000 | CCOc1cc(NC(=O)C2CCCC(O)C2)ccc1S(=O)(=O)Nc1cccc(OC(F)(F)F)c1 (centres unmarked) [Example 1.545]
39 | 750 to 2000 | Cn1nccc1C(=O)Nc1ccc(S(=O)(=O)Nc2cccc(OC(F)(F)F)c2)c(C#N)c1 [Example 1.289]
40 | ≤ 200 | CCOc1cc(NC(=O)[C@@H](NC(C)=O)C(C)C)ccc1S(=O)(=O)Nc1cccc(C(F)(F)F)c1 [Example 1.507]
41 | ≤ 200 | CCOc1cc(NC(=O)[C@H]2CCOC[C@@H]2C)ccc1S(=O)(=O)Nc1cccc(OC(F)(F)F)c1 (racemic) [Example 1.477]
42 | ≤ 200 | CCOc1cc(NC(=O)[C@@H](NC(N)=O)C(C)C)ccc1S(=O)(=O)Nc1cccc(OC(F)(F)F)c1 [Example 1.334]
43 | ≤ 200 | Cc1cc(NC(=O)[C@@H](N)c2ccccc2)ccc1S(=O)(=O)Nc1cccc(OC(F)(F)F)c1 [Example 1.450]
44 | ≤ 200 | CCOc1cc(NC(=O)[C@@H](NC=O)C(C)C)ccc1S(=O)(=O)Nc1cccc(OC(F)(F)F)c1 [Example 1.298]
45 | 2000 to 20000 | COc1cc(NC(=O)c2ccnn2C)ccc1S(=O)(=O)Nc1ccc(C#N)cc1 [Example 1.491]
46 | ≤ 200 | CCOc1cc(NC(=O)c2ccn(C)c(=O)c2C)ccc1S(=O)(=O)Nc1cccc(OC(F)(F)F)c1 [Example 1.332]
47 | 200 to 750 | CCOc1cc(NC(=O)C2CCCC(=O)C2)ccc1S(=O)(=O)Nc1cccc(OC(F)(F)F)c1 (centres unmarked) [Example 1.269]
48 | 750 to 2000 | Cc1cc(NC(=O)c2cccn2C)ccc1S(=O)(=O)Nc1cccc(C(F)(F)F)c1 [Example 1.486]
49 | ≤ 200 | Cc1cc(NC(=O)c2ccns2)ccc1S(=O)(=O)Nc1cccc(C(F)(F)F)c1 [Example 1.346]
50 | 2000 to 20000 | CCOc1cc(NC(=O)[C@@H](O)C(C)C)ccc1S(=O)(=O)Nc1cccc(Cl)c1C(F)(F)F [Example 1.579]
51 | ≤ 200 | COc1cc(NC(=O)[C@@H](O)C(C)C)ccc1S(=O)(=O)Nc1cccc(OC(F)(F)F)c1 [Example 1.438]
52 | 750 to 2000 | Cc1cc(NC(=O)c2ccnn2C)cc(F)c1S(=O)(=O)Nc1cccc(C(F)(F)F)c1 [Example 1.520]
53 | ≤ 200 | CCOc1cc(NC(=O)C(C(=O)O)C2CCOC2)ccc1S(=O)(=O)Nc1cccc(OC(F)(F)F)c1 (centres unmarked) [Example 1.436]

Row | IC50 [nM] | SMILES
54 | 2000 to 20000 | COc1cc(NC(C)=O)cc(F)c1S(=O)(=O)Nc1cccc(OC(F)(F)F)c1 [Example 1.537]
55 | 750 to 2000 | CCOc1cc(NC(=O)c2ccc(OC)cc2)ccc1S(=O)(=O)Nc1cccc(OC(F)(F)F)c1 [Example 1.568]
56 | 2000 to 20000 | Cc1cc(NC(=O)c2c(Br)cnn2C)ccc1S(=O)(=O)Nc1cccc(C(F)(F)F)c1 [Example 1.284]
57 | 200 to 750 | Cc1cc(NC(=O)C2CCOCC2)ccc1S(=O)(=O)Nc1cccc(C(F)(F)F)c1 [Example 1.500]
58 | 200 to 750 | COc1cc(NC(=O)[C@@H](CO)C(C)C)ccc1S(=O)(=O)Nc1ccc(C)c(C(F)(F)F)c1 [Example 1.495]
59 | 2000 to 20000 | CCOc1cc(NC(=O)C2CCNCC2)ccc1S(=O)(=O)Nc1cccc(OC(F)(F)F)c1 [Example 1.427]
60 | ≤ 200 | CCOc1cc(NC(=O)[C@@H](CO)C(C)CC)ccc1S(=O)(=O)Nc1cccc(OC(F)(F)F)c1 (some centres unmarked) [Example 1.297]
61 | 2000 to 20000 | CCOc1cc(NC(=O)[C@@H](O)C(C)C)ccc1S(=O)(=O)Nc1cccc(Cl)c1Cl [Example 1.555]
62 | 750 to 2000 | COc1cc(NC(=O)CC2CCCCC2)ccc1S(=O)(=O)Nc1cccc(C(F)(F)F)c1 [Example 1.343]
63 | 200 to 750 | Cc1cc(NC(=O)c2ccncc2)ccc1S(=O)(=O)Nc1cccc(C(F)(F)F)c1 [Example 1.524]
64 | 2000 to 20000 | Cc1cc(NC(=O)C2CCNCC2)ccc1S(=O)(=O)Nc1cccc(C(F)(F)F)c1 [Example 1.381]
65 | 750 to 2000 | CCOc1cc(NC(=O)C2CCCCCC2)ccc1S(=O)(=O)Nc1cccc(OC(F)(F)F)c1 [Example 1.355]
66 | ≤ 200 | CCCOc1cc(NC(=O)[C@@H](CO)c2ccccc2)ccc1S(=O)(=O)Nc1cccc(CC(F)(F)F)c1 [Example 1.496]
67 | ≤ 200 | CCOc1cc(NC(=O)[C@@H](CO)C(C)C)ccc1S(=O)(=O)Nc1ccc(C)c(OC(F)(F)F)c1 [Example 1.342]
68 | 200 to 750 | COc1cc(NC(=O)c2ccnn2C)ccc1S(=O)(=O)Nc1cc(OC(F)(F)F)ccc1F [Example 1.448]
69 | ≤ 200 | CCOc1cc(NC(=O)[C@@H](N)C2CCCC2)ccc1S(=O)(=O)Nc1cccc(OC(F)(F)F)c1 [Example 1.463]
70 | ≤ 200 | CCOc1cc(NC(=O)[C@@H](O)C(C)C)ccc1S(=O)(=O)Nc1ccc(Cl)c(Cl)c1 [Example 1.375]
71 | 2000 to 20000 | O=C(Nc1ccc(S(=O)(=O)Nc2cccc(C(F)(F)F)c2)c(F)c1)c1ccccc1 [Example 1.549]
